The source of these data is ChEMBL document CHEMBL1201862, “PubChem BioAssay data set” (2004).

Assay in all cases: NCI anticancer screen, dose series, 48 h
The test system of experiment [1] is DMS-114.
Experiment [2] has as its system K562.
Experiment [3] deals with UO-31.
The subject of experiment [4] is NCI-H460.
For experiment [5], the system named is SF-539.
Experiment [6] has as its system HL-60.
Experiment [7] concerns SK-OV-3.
The subject of experiment [8] is Malme-3M.
Experiment [9] relates to SF-295.
Experiment [10] concerns KM12.
In experiment [11] the test system is 786-0.
Experiment [12] concerns LXFL 529.
Experiment [13] concerns SK-MEL-2.
The test system of experiment [14] is CAKI-1.
Experiment [15] relates to UACC-62.
Experiment [16] relates to HCC 2998.
The test system of experiment [17] is OVCAR-4.
The subject of experiment [18] is UACC-257.
In experiment [19] the test system is M14.

Each structure is given as a SMILES string.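 Exposure lasted 48 hours, with cells grown in 96-well plates and compounds tested at five concentrations. At the GI50, growth is halved.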 Calls of active or inactive are those of the source. Rule as the data show it: active = GI50 up to about 1.1 µM and inactive = higher.

For `COC1=CC(=O)NCCN1`, the GI50 in experiment [1] is > 100 µM (inactive); in experiment [2], > 100 µM (inactive); in experiment [3] it was > 100 µM (inactive); in experiment [4] it was 29.3 µM (inactive); in [5], > 100 µM (inactive); in [6] it was 21 µM (inactive). For the same compound, the GI50 in [7], in experiment [8], in [9], in [10], in [11] and in [12] was > 100 µM (inactive) each time. The GI50 in experiment [13], in experiment [14], in [15], in experiment [16], in experiment [17] and in experiment [18] was > 100 µM (inactive) each time. The GI50 in [19] was > 100 µM (inactive).
As to `O=C(NCCOC(=O)CCCCCCCCC(=O)OCCNC(=O)NC(=O)c1cn(Cc2ccccc2)c(=O)[nH]c1=O)NC(=O)c1cn(Cc2ccccc2)c(=O)[nH]c1=O`, the GI50 in experiment [1], in [2], in experiment [3], in [4], in experiment [5] and in experiment [6] was > 100 µM (inactive) throughout. For the same compound, the GI50 in experiment [7], in experiment [9], in experiment [10], in experiment [11], in experiment [12] and in experiment [13] was > 100 µM (inactive) each time. In addition, the GI50 in [14], in [15], in experiment [16], in [17], in experiment [18] and in experiment [19] was > 100 µM (inactive) each time.
For the compound `Nc1nc(=O)n(C2CC(O)C(O)C(CO)O2)cc1F` (centres undefined), the GI50 in [1], in [2], in experiment [3], in experiment [4], in [5] and in experiment [6] was > 100 µM (inactive) throughout. For the same compound, the GI50 in experiment [8], in experiment [9], in [11], in experiment [12], in experiment [13] and in experiment [15] was > 100 µM (inactive) throughout. Moreover, the GI50 in [16], in [17], in [18] and in experiment [19] was > 100 µM (inactive) throughout.
As to `Cc1c(C)c2ccc3oc4ccccc4c3c2oc1=O`, the GI50 in [1] was 86.7 µM (inactive); in experiment [2], > 100 µM (inactive); in experiment [3], > 100 µM (inactive); in experiment [4], > 100 µM (inactive); in experiment [5], > 100 µM (inactive); in [6], > 100 µM (inactive). Also, the GI50 in experiment [7] was > 100 µM (inactive); in experiment [8] it was > 100 µM (inactive); in experiment [9], 67.3 µM (inactive); in [10] it was > 100 µM (inactive); in [11], > 100 µM (inactive); in [12] it was > 100 µM (inactive). Further, the GI50 in experiment [14], in experiment [15], in [16], in experiment [17], in experiment [18] and in [19] was > 100 µM (inactive) each time.
Consider `COC(=O)c1ncc2c(=O)[nH]c3ccccc3c2c1C(=O)OC`, for which the GI50 in [1] was > 100 µM (inactive); in experiment [2], > 100 µM (inactive); in experiment [3], > 100 µM (inactive); in experiment [4], 22 µM (inactive); in experiment [5], > 100 µM (inactive); in experiment [6] it was > 100 µM (inactive). Also, the GI50 in experiment [8], in experiment [9], in experiment [10], in [11], in experiment [12] and in experiment [13] was > 100 µM (inactive) in each case. Besides, the GI50 in [14], in experiment [15], in experiment [16], in [17], in experiment [18] and in [19] was > 100 µM (inactive) in each case.
With `CCOC(=O)NC(=O)c1cn(CCCOC(=O)CCCCCCCCC(=O)OCCCn2cc(C(=O)NC(=O)OCC)c(=O)[nH]c2=O)c(=O)[nH]c1=O`, the GI50 in experiment [1] is 6.65 µM (inactive); in experiment [2], 4.01 µM (inactive); in experiment [4] it was 39.4 µM (inactive); in experiment [5] it was 23.8 µM (inactive); in [6], 5.14 µM (inactive); in [7], 40.5 µM (inactive). Also, the GI50 was 22.8 µM (inactive) in experiment [9]; 15.8 µM (inactive) in experiment [11]; 28 µM (inactive) in experiment [12]; 7.28 µM (inactive) in experiment [14]; 17.5 µM (inactive) in [15]; 10.3 µM (inactive) in [16]. In addition, the GI50 was 4.41 µM (inactive) in [17], 16.9 µM (inactive) in experiment [18] and 21.5 µM (inactive) in experiment [19].
With `CC1(C)OC(=O)[C@@](C)([C@H](O)c2ccccc2)O1`, the GI50 was 56.8 µM (inactive) in [1]; 67.9 µM (inactive) in [2]; > 100 µM (inactive) in experiment [3]; > 100 µM (inactive) in [4]; > 100 µM (inactive) in [5]; 32.6 µM (inactive) in experiment [6]. The GI50 in experiment [7] is > 100 µM (inactive); in [8], 28.7 µM (inactive); in experiment [9] it was > 100 µM (inactive); in experiment [10], > 100 µM (inactive); in experiment [11], > 100 µM (inactive); in experiment [12], > 100 µM (inactive). Besides, the GI50 is > 100 µM (inactive) in [13]; 46.3 µM (inactive) in [14]; 78.2 µM (inactive) in experiment [15]; 71 µM (inactive) in [16]; > 100 µM (inactive) in [17]; > 100 µM (inactive) in experiment [18]. In addition, in experiment [19], the GI50 was > 100 µM (inactive).
Take `CCOCN1COCN/C1=N/C#N`: the GI50 in experiment [1] was 71.4 µM (inactive); in [2], > 100 µM (inactive); in experiment [3], > 100 µM (inactive); in experiment [4], > 100 µM (inactive); in [5] it was > 100 µM (inactive); in [6], > 100 µM (inactive). Moreover, the GI50 in experiment [7], in experiment [8], in experiment [9], in experiment [10], in experiment [11] and in experiment [12] was > 100 µM (inactive) in each case. Further, the GI50 in experiment [13], in experiment [14], in [15], in [16], in experiment [17] and in experiment [18] was > 100 µM (inactive) in each case. Further, the GI50 in experiment [19] was > 100 µM (inactive).
For `COc1ccc2cc3c4cc(OC)c(OC)cc4ccn3c2c1`, the GI50 in [1], in experiment [2], in experiment [3], in [4], in experiment [5] and in experiment [6] was > 100 µM (inactive) each time. For the same compound, the GI50 in experiment [7], in experiment [8], in experiment [9], in experiment [10], in experiment [11] and in experiment [12] was > 100 µM (inactive) each time. For the same compound, the GI50 in experiment [13], in [14], in [15], in experiment [16], in [17] and in experiment [18] was > 100 µM (inactive) each time.
For the compound `COc1cccc(/C=C\c2cc(OC)c(OC)c(OC)c2)c1`, the GI50 is 1.48 µM (inactive) in [1]; 0.373 µM (active) in experiment [2]; 4.48 µM (inactive) in [3]; 0.562 µM (active) in [4]; 0.753 µM (active) in experiment [5]; 4.38 µM (inactive) in [7]. In addition, the GI50 in experiment [8] was 0.585 µM (active); in [10], 0.543 µM (active); in experiment [11] it was 0.575 µM (active); in experiment [12] it was 2.49 µM (inactive); in experiment [14] it was 0.887 µM (active); in experiment [15], 0.455 µM (active). Also, the GI50 in [16] is 3.94 µM (inactive); in experiment [17], 14.4 µM (inactive); in experiment [18], 0.505 µM (active); in experiment [19] it was 0.604 µM (active).
As for `Cc1cc(C)c(C(=O)/C=C/c2ccccc2)c(C)c1`, the GI50 was 24.1 µM (inactive) in experiment [1]; 26.5 µM (inactive) in [2]; 52.4 µM (inactive) in experiment [3]; 18.7 µM (inactive) in experiment [4]; > 10 µM (inactive) in [5]; 25.9 µM (inactive) in experiment [6]. Also, the GI50 in experiment [7] was 64.6 µM (inactive); in [8], 8.02 µM (inactive); in experiment [9], 21.8 µM (inactive); in experiment [10], 35.2 µM (inactive); in experiment [11] it was 27.7 µM (inactive); in experiment [12] it was 31.6 µM (inactive). In addition, the GI50 was 10.4 µM (inactive) in [13]; 36.5 µM (inactive) in [14]; 31.8 µM (inactive) in experiment [15]; 22.8 µM (inactive) in experiment [17]; 33.8 µM (inactive) in experiment [18]; 19.4 µM (inactive) in [19].
